These results are taken from patent US6869913B1, “Pyridazin-3-one derivatives, their use and intermediates for their production” (Sumitomo Chemical Company, Limited, priority 1995, dated 2005).

Format in all cases: in vivo
The test system of series [1] is entireleaf morningglory (Ipomoea hederacea var. integriuscula). In words: Test Example 5: foliar treatment on upland fields. The note with it: 63 g/ha active ingredient; foliar spray; 18 days after application. The text has this: (§1) The herbicidal activity is excellent when rated at “4” or “5” but insufficient when rated at “3” or lower. The phytotoxicity is no problematic on practical use when rated at “0” or “1” but not allowed when rated at “2” or higher.
(§2) Plastic pots of 25×18 cm^2 in area and 7 cm in depth were filled with soil, in which the seeds of soybean (Glycine max), corn (Zea mays), entireleaf morningglory (Ipomoea hederacea var. integriuscula), common cocklebur (Xanthium pensylvanicum), common ragweed (Ambrosia artemisiifolia), and common lambsquarters (Chenopodium album) were sowed, and the test plants were grown for 16 days. Each of the test compounds listed below was formulated into an emulsifiable concentrate according to Formulation Example 2, which was diluted with water to a prescribed concentration. The dilution was uniformly sprayed over the foliage of the test plants with a sprayer at a volume of 1000 liters per hectare. At this time, the unfavorable weeds and crop plants, although their growth state was different depending upon the weed species, were at the 1- to 4-leaf stage, and the plant height was 5 to 20 cm. After 18 days from the application, the herbicidal activity and phytotoxicity were examined. This test was made in a greenhouse over the entire period.

Series [2] concerns common cocklebur (Xanthium pensylvanicum). In words: Test Example 5: foliar treatment on upland fields. To be noted: 63 g/ha active ingredient; foliar spray; 18 days after application.
Description: as §1, §2

Series [3] has as its system common lambsquarters (Chenopodium album). In words: Test Example 5: foliar treatment on upland fields. The note with it: 63 g/ha active ingredient; foliar spray; 18 days after application.
Description: as §1, §2

The subject of series [4] is common ragweed (Ambrosia artemisiifolia). In words: Test Example 5: foliar treatment on upland fields. To be noted: 63 g/ha active ingredient; foliar spray; 18 days after application.
Description: as §1, §2

The test system of series [5] is soybean (Glycine max). In words: Test Example 5: foliar treatment on upland fields (phytotoxicity). The note with it: 63 g/ha active ingredient; foliar spray; 18 days after application.
Description: as §1, §2

Series [6] deals with corn (Zea mays). The series is described as above. The note with it: 63 g/ha active ingredient; foliar spray; 18 days after application.
Description: as §1, §2

The subject of series [7] is entireleaf morningglory (Ipomoea hederacea var. integriuscula). In words: Test Example 2: foliar treatment on upland fields. On the set-up: key: rating; 4–5 = excellent activity, 3 or lower = insufficient. The note with it: 32 g/ha active ingredient; foliar spray; examined 19 days after application.
Description: as §1
(§3) Cylindrical plastic pots of 10 cm in diameter and 10 cm in depth were filled with soil, in which the seeds of barnyardgrass (Echinochloa crus-galli), entireleaf morningglory (Ipomoea hederacea var. integriuscula) and velvetleaf (Abutilon theophrash) were sowed, and the test plants were grown in a greenhouse for 19 days. Each of the test compounds listed below was formulated into an emulsifiable concentrate according to Formulation Example 2, which was diluted with water containing a spreading agent to a prescribed concentration. The dilution was uniformly sprayed over the foliage of the test plants with a sprayer at a volume of 1000 liters per hectare. After the application, the test plants were grown in the greenhouse for 19 days, and the herbicidal activity was examined.

In series [8] the test system is velvetleaf (Abutilon theophrash). Nature of the series: Test Example 2: foliar treatment on upland fields. The arrangement: key: rating; 4–5 = excellent activity, 3 or lower = insufficient. The note with it: 32 g/ha active ingredient; foliar spray; examined 19 days after application.
Description: as §1, §3

Series [9] relates to barnyardgrass (Echinochloa crus-galli). In words: Test Example 2: foliar treatment on upland fields. The arrangement: key: rating; 4–5 = excellent activity, 3 or lower = insufficient. The note with it: 32 g/ha active ingredient; foliar spray; examined 19 days after application.
Description: as §1, §3

The test system of series [10] is entireleaf morningglory (Ipomoea hederacea var. integriuscula). Nature of the series: Test Example 3: soil surface treatment on upland fields. The note with it: 500 g/ha active ingredient; soil surface spray; examined after 19 days. As to the method: (§4) Cylindrical plastic pots of 10 cm in diameter and […] in depth were filled with soil, in which the seeds of […] (Ipomoea hederacea var. integriuscula) and velvetleaf (Abutilon theophrash) were sowed. Each of the test compounds listed below was formulated into an emulsifiable concentrate according to Formulation Example 2, which was diluted with water to a prescribed concentration. The dilution was uniformly sprayed over the soil surface in the pots with a sprayer at a volume of 1000 liters per hectare. After the application, the test plants were grown in a greenhouse for 19 days, and the herbicidal activity was examined.

Series [11] concerns velvetleaf (Abutilon theophrash). The series is described as above. To be noted: 500 g/ha active ingredient; soil surface spray; examined after 19 days. The protocol:
as §4

Series [12] deals with entireleaf morningglory (Ipomoea hederacea var. integriuscula). Nature of the series: Test Example 1: foliar treatment on upland fields. To be noted: 500 g/ha active ingredient; foliar spray; examined 19 days after application. As to the method:
as §3, with “barnyardgrass (Echinochloa crus-galli), entireleaf morningglory” left out

The subject of series [13] is velvetleaf (Abutilon theophrash). Nature of the series: Test Example 1: foliar treatment on upland fields. To be noted: 500 g/ha active ingredient; foliar spray; examined 19 days after application. The protocol: as §3, with “barnyardgrass (Echinochloa crus-galli), entireleaf morningglory” left out
Series [14] has as its system barnyardgrass (Echinochloa oryzicola). Nature of the series: Test Example 4: flooding treatment on paddy fields. The note with it: application amount of active ingredient 250 g/ha, examined 19 days after application, index 0 to 5. The protocol:
Cylindrical plastic pots of 9 cm in diameter and 11 cm in depth were filled with soil, in which the seeds of barnyardgrass (Echinochloa oryzicola) were sowed. These pots were flooded to form a paddy field, and the test plants were grown in a greenhouse for 7 days. Each of the test compounds listed below was formulated into an emulsifiable concentrate according to Formulation Example 2, which was diluted with water to a prescribed concentration. The dilution was applied to the water surface in the pots at a volume of 50 liters per hectare. After the application, the test plants were grown in the greenhouse for 19 days, and the herbicidal activity was examined.

On to “Pentyl 2-chloro-4-fluoro-5-(4-methyl-5-trifluoromethyl-3-pyridazinon-2-yl) phenoxyacetate [Compound 1-499]”, for which, in [1], the “Herbicidal activity and phytotoxicity Entireleaf morningglory” value is on record as 5. In series [2], the “Herbicidal activity and phytotoxicity Common cocklebur” value came out at 5. The “Herbicidal activity and phytotoxicity Common lambsquarters” value in series [3] was determined as 4. Further, in series [4], the “Herbicidal activity and phytotoxicity Common ragweed” value is listed as 5. Moreover, in series [5], the “Herbicidal activity and phytotoxicity Soybean” value is given as 1. Besides, the “Herbicidal activity and phytotoxicity Corn” value in [6] came out at 1. Further, the “Herbicidal activity Entireleaf morningglory” value in series [7], in series [10] and in series [12] was 5 throughout. The “Herbicidal activity Velvetleaf” value in [8], in series [11] and in series [13] was 5 throughout. The “Herbicidal activity Barnyardgrass” value in [9] and in [14] was 5 throughout.
